Source: BigSolDB 2.1

O=[N+]([O-])c1cccc(Cl)c1Cl
solubility (mole fraction)
Details	in cyclohexane	in ethyl acetate	in isopropanol	in n-butanol	in n-heptane	in n-hexane	in n-propanol	in tetrachloromethane
278.15 K	0.0137	0.212	0.00992	0.0254	0.00633	0.00535	0.0222	0.0619
280.65 K	0.0156	0.269	0.0116	0.0331	0.00962	0.00888	0.0247	0.0811
283.15 K	0.0184	0.331	0.0148	0.0401	0.0128	0.0112	0.0275	0.097
285.65 K	0.0199	0.388	0.0169	0.0453	0.0146	0.0134	0.0295	0.11
288.15 K	0.0212	0.435	0.0199	0.0501	0.017	0.015	0.0318	0.12
290.65 K	0.0266	0.486	0.0243	0.0527	0.0212	0.0172	0.035	0.13
293.15 K	0.0317	0.521	0.0286	0.0563	0.0251	0.0214	0.0387	0.15
295.65 K	0.0377	0.569	0.0336	0.0589	0.0276	0.0231	0.0421	0.194
298.15 K	0.0421	0.592	0.0394	0.0614	0.0322	0.0245	0.0456	0.241
300.65 K	0.0474	0.645	0.0452	0.0645	0.0345	0.0277	0.0511	0.312
303.15 K	0.0549	0.682	0.05	0.0679	0.038	0.031	0.0575	0.38

O=[N+]([O-])c1ccc(Cl)c(Cl)c1
solubility (mole fraction)
Details	in cyclohexane	in ethyl acetate	in isopropanol	in n-butanol	in n-heptane	in n-hexane	in n-propanol	in tetrachloromethane
278.15 K	0.0568	0.249	0.0157	0.0389	0.0296	0.0293	0.0506	0.129
280.65 K	0.0632	0.332	0.0199	0.0443	0.0326	0.0363	0.0519	0.182
283.15 K	0.0703	0.405	0.0221	0.0486	0.0424	0.0425	0.0537	0.244
285.65 K	0.0774	0.463	0.0272	0.0542	0.0451	0.0476	0.0582	0.302
288.15 K	0.0865	0.541	0.0318	0.0593	0.0505	0.0518	0.0634	0.362
290.65 K	0.111	0.602	0.036	0.0665	0.0564	0.0572	0.0724	0.435
293.15 K	0.154	0.668	0.0439	0.0735	0.063	0.0634	0.0819	0.511
295.65 K	0.25	0.719	0.0615	0.0819	0.0662	0.0699	0.0935	0.572
298.15 K	0.343	0.778	0.0783	0.0999	0.0729	0.0824	0.115	0.644
300.65 K	0.511	0.822	0.0981	0.118	0.0908	0.115	0.139	0.722
303.15 K	0.751	0.866	0.124	0.136	0.132	0.173	0.173	0.792
